Assay results: the NIST ThermoML archive (doi:10.1016/j.jct.2007.06.015)
Numbers after ± are expanded uncertainties.

What was measured:
[1] = molar enthalpy of vaporization or sublimation; settings: 298.15 K, Static calorimetry
[2] = Molar enthalpy of transition or fusion; settings: Crystal; DSC
[3] = Crystal; DTA

Structure (SMILES)	molar enthalpy ([1]; Liquid) [kJ/mol]	molar enthalpy ([1]; Crystal) [kJ/mol]	Molar enthalpy of transition or fusion [2] [kJ/mol]	Normal melting temperature [3] [°C]
N[C@H]1CC[C@@H](N)CC1 [cis-1,4-cyclohexanediamine]	62.2 ± 1.9			
N[C@H]1CC[C@H](N)CC1 [trans-1,4-cyclohexanediamine]		105 ± 1.6	27 ± 0.7	69.0 ± 0.5
